Test results taken from patent US5030760A, “Tetrahydrophthalimides, and their production and use” (Sumitomo Chemical Company, Ltd., priority 1981, dated 1991).

Key:
barnyardgrass [1] = assay: Test Example 7, flooded paddy pot dripping, herbicidal activity; assay type: in vivo, Echinochloa crus-galli; details: 3 weeks; note: ranges in brackets are in %
Description: (§1) The application of the tetrahydrophthalimides (I) as herbicides will be illustratively shown in the following Examples wherein the phytotoxicity to cultivated plants and the herbicidal activity on weeds were evaluated as follows: the aerial parts of the test plants were cut off and weighed (fresh weight); the percentage of the fresh weight of the treated plant to that of the untreated plant was calculated with the latter fresh weight taken as 100; and the crop damage and the herbicidal activity were evaluated by the standard given in the table below. The rating values of phytotoxicity, 0 and 1, and those of herbicidal effect, 5 and 4, are generally regarded as satisfactory to protect cultivated plants and control weeds, respectively. The rating values in the paddy field test alone were calculated from the dry weight of the test plants.
(§2) Wagner's pots (1/5000 are) were filled with paddy field soil and water was poured therein to make a flooded condition. Rice seedlings of the 3-leaf stage were transplanted and tubers of slender spikerush and arrowhead and the seeds of barnyardgrass, monochoria and broad-leaved weed were sowed therein and grown for 5 days. When germination occurs, a designed amount of the test compound formulated into an emulsifiable concentrate according to Preparation Example 2 was applied to the pots by dripping. The test plants were grown for a further 3 weeks, and herbicidal activity and phytotoxicity were examined. The herbicidal activity was evaluated in figures ranging from 0 to 5. The phytotoxicity to the crop plants was also indicated on the same standard as that of the herbicidal activity.

slender spikerush = assay: as above; assay type: in vivo, Eleocharis acicularis; details: 3 weeks; note: ranges in brackets are in %
Description: as §1, §2

broad-leaved weed = assay: as above; assay type: in vivo; details: 3 weeks; note: ranges in brackets are in %
Description: as §1, §2

rice plant = assay: Test Example 7, flooded paddy pot dripping, phytotoxicity to rice plant; assay type: in vivo; details: 3 weeks; note: ranges in brackets are in %
Description: as §1, §2

monochoria = assay: Test Example 7, flooded paddy pot dripping, herbicidal activity; assay type: in vivo, Monochoria vaginalis; details: 3 weeks; note: ranges in brackets are in %
Description: as §1, §2

arrowhead = assay: as above; assay type: in vivo, Sagittaria pygmaea; details: 3 weeks; note: ranges in brackets are in %
Description: as §1, §2

velvetleaf [2] = assay: Test Example 1, foliar treatment, herbicidal activity; assay type: in vivo, Abutilon theophrasti; details: 3 weeks; note: ranges in brackets are in %
Description: as §1
(§3) Plastic beakers (diameter, 10 cm; height, 10 cm) were filled with upland field soil, and the seeds of corn, barnyardgrass, wild oat, wild mustard and velvetleaf were separately sown in the beakers and grown for 2 weeks in the greenhouse. A designed amount of the test compound was sprayed to the foliage of the test plants by means of a small hand sprayer. After the spraying, the test plants were further grown for 3 weeks in the greenhouse, and herbicidal activity was examined. In this foliar treatment, the test compounds were formulated into an emulsifiable concentrate according to Preparation Example 2 and applied at a spray volume of 5 liters per are by dispersing it in water with the addition of a spreading agent.

corn [3] = assay: Test Example 1, foliar treatment, phytotoxicity to corn; assay type: in vivo; details: 3 weeks; note: ranges in brackets are in %
Description: as §1, §3

sicklepod = assay: Test Example 3, soil surface spraying, herbicidal activity; assay type: in vivo, Cassia obtusifolia; details: 20 days; note: ranges in brackets are in %
Description: as §1
(§4) Plastic trays (35 cm×25 cm×15 cm) were filled with upland field soil, and the seeds of tall morningglory, velvetleaf and sicklepod and the seeds of corn were sown therein. A designed amount of the test compounds formulated into a wettable powder according to Preparation Example 1 was dispersed in water and applied by spraying at a spray volume of 5 liters per are to the whole surface of the soil. After the spraying, the test plants were placed in a greenhouse and grown for 20 days, and herbicidal activity and phytotoxicity were examined.

wild oat = assay: Test Example 1, foliar treatment, herbicidal activity; assay type: in vivo, Avena fatua; details: 3 weeks; note: ranges in brackets are in %
Description: as §1, §3

tall morningglory = assay: Test Example 3, soil surface spraying, herbicidal activity; assay type: in vivo, Ipomoea purpurea; details: 20 days; note: ranges in brackets are in %
Description: as §1, §4

velvetleaf [4] = assay: as above; assay type: in vivo, Abutilon theophrasti; details: 20 days
Description: as §1, §4

corn [5] = assay: Test Example 3, soil surface spraying, phytotoxicity to corn; assay type: in vivo; details: 20 days; note: ranges in brackets are in %
Description: as §1, §4

barnyardgrass [6] = assay: Test Example 1, foliar treatment, herbicidal activity; assay type: in vivo, Echinochloa crus-galli; details: 3 weeks; note: ranges in brackets are in %
Description: as §1, §3

wild mustard = assay: as above; assay type: in vivo, Brassica kaber; details: 3 weeks
Description: as §1, §3
Throughout, for Herbicidal activity, Velvetleaf: ranges in brackets are in %.

Structure (SMILES) | Herbicidal activity, Velvetleaf (velvetleaf [2]; 1.25 g/are) | Herbicidal activity, Velvetleaf (velvetleaf [2]; 5 g/are) | Phytotoxicity, Corn (corn [3]; 1.25 g/are) | Phytotoxicity, Corn (corn [3]; 5 g/are) | Herbicidal activity, Sicklepod (sicklepod; 5 g/are) | Herbicidal activity, Sicklepod (sicklepod; 10 g/are) | Herbicidal activity, Wild cat (wild oat; 1.25 g/are) | Herbicidal activity, Wild cat (wild oat; 5 g/are) | Herbicidal activity, Tall morningglory (tall morningglory; 5 g/are) | Herbicidal activity, Tall morningglory (tall morningglory; 10 g/are) | Herbicidal activity, Velvetleaf (velvetleaf [4]; 5 g/are) | Herbicidal activity, Velvetleaf (velvetleaf [4]; 10 g/are) | Phytotoxicity, Corn (corn [5]; 5 g/are) | Phytotoxicity, Corn (corn [5]; 10 g/are) | Herbicidal activity, Barnyardgrass (barnyardgrass [6]; 1.25 g/are) | Herbicidal activity, Barnyardgrass (barnyardgrass [6]; 5 g/are) | Herbicidal activity, Wild mustard (wild mustard; 1.25 g/are) | Herbicidal activity, Wild mustard (wild mustard; 5 g/are) | further results
CCCCCCCCOc1cc(N2C(=O)C3=C(CCCC3)C2=O)c(F)cc1Cl [Compound No. 10] | – | – | – | – | – | – | – | – | – | – | – | – | – | – | – | – | – | – | Herbicidal activity, Barnyardgrass (barnyardgrass [1]; 1.25 g/are): 3 (50-69); Herbicidal activity, Barnyardgrass (barnyardgrass [1]; 2.5 g/are): 4 (70-89); Herbicidal activity, Barnyardgrass (barnyardgrass [1]; 5 g/are): 5 (90-100); Herbicidal activity, Slender spikerush (slender spikerush; 1.25 g/are): 3 (50-69); Herbicidal activity, Slender spikerush (slender spikerush; 2.5 g/are): 3 (50-69); Herbicidal activity, Slender spikerush (slender spikerush; 5 g/are): 4 (70-89); Herbicidal activity, Broad-leaved weed (broad-leaved weed; 1.25 g/are): 5 (90-100); Herbicidal activity, Broad-leaved weed (broad-leaved weed; 2.5 g/are): 5 (90-100); Herbicidal activity, Broad-leaved weed (broad-leaved weed; 5 g/are): 5 (90-100); Phytotoxicity, Rice plant (rice plant; 1.25 g/are): 0 (0-9); Phytotoxicity, Rice plant (rice plant; 2.5 g/are): 0 (0-9); Phytotoxicity, Rice plant (rice plant; 5 g/are): 0 (0-9); Herbicidal activity, Monochoria (monochoria; 1.25 g/are): 5 (90-100); Herbicidal activity, Monochoria (monochoria; 2.5 g/are): 5 (90-100); Herbicidal activity, Monochoria (monochoria; 5 g/are): 5 (90-100); Herbicidal activity, Allowhead (arrowhead; 1.25 g/are): 3 (50-69); Herbicidal activity, Allowhead (arrowhead; 2.5 g/are): 4 (70-89); Herbicidal activity, Allowhead (arrowhead; 5 g/are): 4 (70-89)
CCC(C)Oc1cc(N2C(=O)C3=C(CCCC3)C2=O)c(F)cc1Cl (stereo not drawn) [compound 4] | 5 (0) | 5 (0) | 0 (100) | 1 (90-99) | 4 (1-10) | 4 (1-10) | 2 (21-40) | 5 (0) | 4 (1-10) | 5 (0) | 5 (0) | 5 (0) | 0 (100) | 0 (100) | 1 (41-60) | 5 (0) | 4 (1-10) | 5 (0) | –
CCCCOc1cc(N2C(=O)C3=C(CCCC3)C2=O)c(F)cc1Cl [compound 6] | 5 (0) | 5 (0) | 0 (100) | 0 (100) | 4 (1-10) | 4 (1-10) | 1 (41-60) | 3 (11-20) | 4 (1-10) | 4 (1-10) | 5 (0) | 5 (0) | 0 (100) | 0 (100) | 3 (11-20) | 4 (1-10) | 4 (1-10) | 5 (0) | –
